# Patent US11254663B2 (BRISTOL-MYERS SQUIBB COMPANY, priority 2019, dated 2022)
# Target: FXR (Homo sapiens (Human), UniProt Q96RI1)
# Test: transient human FXR/Gal4-luciferase reporter assay
# Type: cell-based
# Settings: not given
# Summary of the method: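 HEK293 cells stably carrying a 5×Gal4 response element–firefly luciferase reporter were transiently transfected overnight with a Gal4 DBD–human FXR LBD fusion plasmid. Compound was added in DMSO and cells were incubated overnight at 37 °C, 5% CO2. Activity was read as Steady-Glo luminescence.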
# FXR, sequence (Q96RI1 262-486): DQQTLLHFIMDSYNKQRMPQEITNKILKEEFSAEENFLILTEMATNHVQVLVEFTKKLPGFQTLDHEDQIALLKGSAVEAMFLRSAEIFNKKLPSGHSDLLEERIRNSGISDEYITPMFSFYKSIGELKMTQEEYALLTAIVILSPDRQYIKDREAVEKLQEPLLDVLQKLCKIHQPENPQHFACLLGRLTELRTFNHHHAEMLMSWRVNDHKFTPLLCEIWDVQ
row,Compound,EC50
1,"O=C(N(CC12CCC(c3noc(C4(C(F)(F)F)CC4)n3)(CC1)CC2)c1cccc(-c2cnc3nc(C4CC4)sc3c2)c1)C12CC(F)(C1)C2 [Example 526, N-(3-(2-cyclopropylthiazolo[4,5-b]pyridin-6-yl)phenyl)-3-fluoro-N-((4-(5-(1-(trifluoromethyl)cyclopropyl)-1,2,4-oxadiazol-3-yl)bicyclo[2.2.2]octan-1-yl)methyl) bicyclo[1.1.1]pentane-1-carboxamide]",497 nM
2,"CCOc1ncc(-c2cccc(N(CC34CCC(c5noc(C6(C)COC6)n5)(CC3)CC4)C(=O)[C@H]3C[C@@](C)(O)C3)c2)cn1 [Example 519, (1S,3S)—N-(3-(2-ethoxypyrimidin-5-yl)phenyl)-3-hydroxy-3-methyl-N-((4-(5-(3-methyloxetan-3-yl)-1,2,4-oxadiazol-3-yl)bicyclo[2.2.2]octan-1-yl)methyl)cyclobutane-1-carboxamide]",504 nM
3,"CC(C)(O)c1ccc(-c2cccc(N(CC34CCC(c5noc(C(C)(C)F)n5)(CC3)CC4)C(=O)N3CC(O)(C(F)(F)F)C3)c2)cc1 [Example 643, N-((4-(5-(2-fluoropropan-2-yl)-1,2,4-oxadiazol-3-yl)bicyclo[2.2.2]octan-1-yl)methyl)-3-hydroxy-N-(4′-(2-hydroxypropan-2-yl)-[1,1′-biphenyl]-3-yl)-3-(trifluoromethyl)azetidine-1-carboxamide]",235 nM
4,"CC(C)(O)c1ccc(-c2cccc(N(CC34CCC(c5noc(C(C)(C)F)n5)(CC3)CC4)C(=O)NCCC3(O)CCCC3)c2)cc1 [Example 650, 1-((4-(5-(2-fluoropropan-2-yl)-1,2,4-oxadiazol-3-yl)bicyclo[2.2.2]octan-1-yl)methyl)-3-(2-(1-hydroxycyclopentyl)ethyl)-1-(4′-(2-hydroxypropan-2-yl)-[1,1′-biphenyl]-3-yl)urea]",472 nM

# Same assay, conditions: Gal4-hFXR fusion construct, HEK293 reporter cells; response relative to 8 μM GW-4064
row,Compound,EC50
1,"CC(C)(F)c1nc(C23CCC(CN(c4cccc(-c5ccc(-c6nonc6N)cc5)c4)C(=O)[C@H]4C[C@](O)(C(F)(F)F)C4)(CC2)CC3)no1 [Example 662, (cis)-N-(4′-(4-amino-1,2,5-oxadiazol-3-yl)-[1,1′-biphenyl]-3-yl)-N-((4-(5-(2-fluoropropan-2-yl)-1,2,4-oxadiazol-3-yl)bicyclo[2.2.2]octan-1-yl)methyl)-3-hydroxy-3-(trifluoromethyl)cyclobutane-1-carboxamide]",574 nM
2,"O=C(N(CC12CCC(c3nc(C4CC4)no3)(CC1)CC2)c1cccc(-c2ccn3ccnc3c2)c1)C12CC(F)(C1)C2 [Example 288, N-((4-(3-cyclopropyl-1,2,4-oxadiazol-5-yl)bicyclo[2.2.2]octan-1-yl)methyl)-3-fluoro-N-(3-(imidazo[1,2-a]pyridin-7-yl)phenyl)bicyclo[1.1.1]pentane-1-carboxamide]",539 nM
3,"COc1ccc(-c2cccc(N(CC34CCC(c5nc(C(C)C)no5)(CC3)CC4)C(=O)C34CC(F)(C3)C4)c2)cn1 [Example 382, 3-fluoro-N-((4-(3-isopropyl-1,2,4-oxadiazol-5-yl)bicyclo[2.2.2]octan-1-yl)methyl)-N-(3-(6-methoxypyridin-3-yl)phenyl)bicyclo[1.1.1]pentane-1-carboxamide]",98 nM
4,"CS(=O)(=O)Nc1cccc(-c2cccc(N(CC34CCC(c5nc(C6CC6)no5)(CC3)CC4)C(=O)C34CC(F)(C3)C4)c2)c1 [Example 256, N-((4-(3-cyclopropyl-1,2,4-oxadiazol-5-yl)bicyclo[2.2.2]octan-1-yl)methyl)-3-fluoro-N-(3′-(methylsulfonamido)-[1,1′-biphenyl]-3-yl)bicyclo[1.1.1]pentane-1-carboxamide]",219 nM
5,"O=C(N(CC12CCC(c3nc(C4CC4)no3)(CC1)CC2)c1cccc(-c2ccc3ncsc3c2)c1)C12CC(F)(C1)C2 [Example 277, N-(3-(benzo[d]thiazol-6-yl)phenyl)-N-((4-(3-cyclopropyl-1,2,4-oxadiazol-5-yl)bicyclo[2.2.2]octan-1-yl)methyl)-3-fluorobicyclo[1.1.1]pentane-1-carboxamide]",35 nM
6,"CC(C)c1noc(C23CCC(CN(C(=O)C45CC(F)(C4)C5)c4cccc(-c5cnc(C(F)(F)F)nc5)c4)(CC2)CC3)n1 [Example 384, 3-fluoro-N-((4-(3-isopropyl-1,2,4-oxadiazol-5-yl)bicyclo[2.2.2]octan-1-yl)methyl)-N-(3-(2-(trifluoromethyl)pyrimidin-5-yl)phenyl)bicyclo[1.1.1]pentane-1-carb oxamide]",184 nM
7,"CC(C)(C)c1nc(C23CCC(CN(C(=O)C45CC(F)(C4)C5)c4cc(-c5ncc(OC(F)F)cn5)ccn4)(CC2)CC3)no1 [Example 541, N-((4-(5-(tert-butyl)-1,2,4-oxadiazol-3-yl)bicyclo[2.2.2]octan-1-yl)methyl)-N-(4-(5-(difluoromethoxy)pyrimidin-2-yl)pyridin-2-yl)-3-fluorobicyclo[1.1.1]pentane-1-carboxamide]",18 nM
8,"Cc1nc2ccc(-c3cccc(N(CC45CCC(c6nc(C7CC7)no6)(CC4)CC5)C(=O)C4CC(F)(F)C4)c3)cc2s1 [Example 554, N-((4-(3-cyclopropyl-1,2,4-oxadiazol-5-yl)bicyclo[2.2.2]octan-1-yl)methyl)-3,3-difluoro-N-(3-(2-methylbenzo[d]thiazol-6-yl)phenyl)cyclobutane-1-carboxamide]",232 nM
9,"CC(C)(C)c1noc(C23CCC(CN(C(=O)C45CC(F)(C4)C5)c4cccc(-c5ccc(NS(C)(=O)=O)nc5)c4)(CC2)CC3)n1 [Example 364, N-((4-(3-(tert-butyl)-1,2,4-oxadiazol-5-yl)bicyclo[2.2.2]octan-1-yl)methyl)-3-fluoro-N-(3-(6-(methylsulfonamido)pyridin-3-yl)phenyl)bicyclo[1.1.1]pentane-1-carboxamide]",509 nM
10,"O=C(N(CC12CCC(c3noc(C(F)(F)F)n3)(CC1)CC2)c1cccc(-c2cnc(C3CC3)nc2)c1)C12CC(F)(C1)C2 [Example 580, N-(3-(2-cyclopropylpyrimidin-5-yl)phenyl)-3-fluoro-N-((4-(5-(trifluoromethyl)-1,2,4-oxadiazol-3-yl)bicyclo[2.2.2]octan-1-yl)methyl)bicyclo[1.1.1]pentane-1-carboxamide]",160 nM
11,"CC(C)Oc1ccc(-c2cc(N(CC34CCC(c5noc(C(C)(C)F)n5)(CC3)CC4)C(=O)N[C@H]3CC[C@](C)(OC(F)F)CC3)ccc2F)cc1 [Example 653, 3-((trans)-4-(difluoromethoxy)-4-methylcyclohexyl)-1-(6-fluoro-4′-isopropoxy-[1,1′-biphenyl]-3-yl)-1-((4-(5-(2-fluoropropan-2-yl)-1,2,4-oxadiazol-3-yl)bicyclo[2.2.2]octan-1-yl)methyl)urea]",145 nM
12,"O=C(N(CC12CCC(c3nc(C4CC4)no3)(CC1)CC2)c1cccc(-c2cccn3ccnc23)c1)C12CC(F)(C1)C2 [Example 330, N-((4-(3-cyclopropyl-1,2,4-oxadiazol-5-yl)bicyclo[2.2.2]octan-1-yl)methyl)-3-fluoro-N-(3-(imidazo[1,2-a]pyridin-8-yl)phenyl)bicyclo[1.1.1]pentane-1-carboxamide]",392 nM
13,"Cn1nc(C23CCC(CN(C(=O)C45CC(F)(C4)C5)c4cccc(-c5ccc6[nH]c(=O)oc6c5)c4)(CC2)CC3)cc1C1CC1 [Example 411, N-((4-(5-cyclopropyl-1-methyl-1H-pyrazol-3-yl)bicyclo[2.2.2]octan-1-yl)methyl)-3-fluoro-N-(3-(2-oxo-2,3-dihydrobenzo[d]oxazol-6-yl)phenyl)bicyclo[1.1.1]pentane-1-carboxamide]",144 nM
